“Also recorded” adds a separate entry of the source.
Assays:
[1] = test system: human dermal papilla cells (HDPC); assay: Cytotoxicity / growth-proliferation of dermal papilla cells (CCK-8); assay type: cell-based; conditions: 10, 30, 50, 100 ppm, 1 day, CCK-8, 450 nm, FIG. 1
Protocol: (§1) Human hair dermal papilla cells (HDPC), used in the test examples described below, were cultured in Dulbecco's Modified Eagle Medium (DMEM, WELGENE) supplemented with 10% Fetal Bovine Serum (FBS, WELGENE) and 1% antibiotics (Penicillin-Streptomycin, WELGENE) as the culture medium, in an incubator at 37° C., 5% CO2, and humid conditions.
Specifically, after treating human dermal papilla cells (HDPC) or human outer root sheath cells (ORS) with Meloside A or Meloside L at concentrations of 10, 30, 50, and 100 ppm for 1 day, CCK-8 (Cell Counting Kit-8, Dojindo, EU) reagent was added to the treated HDPC according to the manufacturer's protocol. Absorbance was then measured at a wavelength of 450 nm using a microplate reader (BioTeK, USA), and the extent of HDPC growth/proliferation by Meloside treatment was compared and confirmed against the negative control group (treated with DMEM instead of Meloside A or L).

[2] = test system: Androgen Receptor (AR); assay: Androgen receptor expression in DHT-treated HDPC (Western blot); assay type: cell-based, human; conditions: HDPC pre-treated with 1 μM DHT, 30 or 100 ppm, 1 day, FIGS. 3 and 4
Protocol: as §1
Specifically, the following groups were prepared: (i) a negative control group, where neither Dihydrotestosterone (DHT) nor Meloside A and L were treated on human dermal papilla cells (HDPC); (ii) an untreated group, where 1 μM DHT was treated on HDPC, but neither Meloside A nor L was treated; (iii) a positive control group, where 1 μM DHT was treated on HDPC, followed by treatment with 100 μM Minoxidil instead of Meloside A and L; and (iv) a treated group, where HDPC were first treated with 1 μM DHT to activate androgen receptors, and then treated with Meloside A or L at concentrations of 30 or 100 ppm, respectively, for 1 day. After preparation, the HDPC from (i) to (iv) were lysed, and the increase or decrease in the expression level of Androgen Receptor (AR) was confirmed using the Western blot technique. Here, for the analysis of relative expression patterns for each sample, the expression level was normalized based on the expression level of Actin. […]

[3] = target: T1, androgen receptor (Homo sapiens, UniProt P10275); assay: Androgen receptor nuclear translocation in dermal papilla cells (EGFP-AR, fluorescence microscopy); assay type: cell-based; conditions: DHT co-treated with 100 ppm, 24 hours, FIGS. 5 and 6
T1 construct: host or cells: dermal papilla cells
T1 sequence (P10275 1-920): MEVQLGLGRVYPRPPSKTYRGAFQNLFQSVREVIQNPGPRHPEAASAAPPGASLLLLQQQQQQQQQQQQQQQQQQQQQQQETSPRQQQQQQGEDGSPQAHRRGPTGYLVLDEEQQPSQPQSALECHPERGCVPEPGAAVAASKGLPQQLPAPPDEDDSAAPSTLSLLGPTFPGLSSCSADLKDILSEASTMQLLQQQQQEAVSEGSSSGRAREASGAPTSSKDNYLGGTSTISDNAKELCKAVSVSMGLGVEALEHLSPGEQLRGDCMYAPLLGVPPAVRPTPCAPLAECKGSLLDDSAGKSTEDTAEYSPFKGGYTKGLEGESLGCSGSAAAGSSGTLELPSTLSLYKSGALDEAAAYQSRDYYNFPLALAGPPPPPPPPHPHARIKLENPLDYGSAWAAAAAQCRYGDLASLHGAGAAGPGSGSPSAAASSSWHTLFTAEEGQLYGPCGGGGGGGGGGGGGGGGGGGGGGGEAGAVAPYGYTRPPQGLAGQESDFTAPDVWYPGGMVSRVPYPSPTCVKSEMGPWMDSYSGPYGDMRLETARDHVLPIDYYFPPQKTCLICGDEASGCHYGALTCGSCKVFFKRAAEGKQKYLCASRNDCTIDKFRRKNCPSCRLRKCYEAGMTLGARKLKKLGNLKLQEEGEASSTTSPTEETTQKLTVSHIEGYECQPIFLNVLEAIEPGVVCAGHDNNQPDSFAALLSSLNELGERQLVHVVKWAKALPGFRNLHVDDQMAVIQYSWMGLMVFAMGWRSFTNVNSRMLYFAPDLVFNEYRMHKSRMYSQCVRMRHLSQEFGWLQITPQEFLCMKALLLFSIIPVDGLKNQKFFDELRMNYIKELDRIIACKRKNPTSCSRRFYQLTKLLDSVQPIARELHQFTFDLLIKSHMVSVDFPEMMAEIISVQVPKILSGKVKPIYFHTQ
Protocol: To confirm the involvement of androgen receptors in hair loss-related gene transcription, recombinant plasmid EGFP-AR (Addgene) was used, and the extent of androgen receptor nuclear translocation in dermal papilla cells was measured using a cellular injection method.
For the untreated group, only DHT was treated, and for the negative control group, neither DHT nor the sample was treated. In the experimental group, DHT and Meloside A or L at 100 ppm were co-treated, and after 24 hours, measurements were taken using a fluorescence microscope at Ex 485 nm and Em 535 nm. The results observed with the fluorescence microscope are shown in FIG. 5, and the number of cells with translocated androgen receptors in the treated groups, based on the untreated group, is shown in FIG. 6.

[4] = test system: DKK1; assay: DKK1 expression in DHT-treated HDPC supernatant (ELISA); assay type: cell-based, human; conditions: HDPC treated with DHT, 30 or 100 ppm, 1 day, FIG. 7
Protocol: HDPC were treated with DHT to increase DKK1 expression, and then treated with Meloside A or L at concentrations of 30 or 100 ppm, respectively, for 1 day to obtain the cell supernatant. For comparison, HDPC treated with Dihydrotestosterone (DHT) but without Meloside A and L were used as the untreated group, and HDPC treated with 100 μM Minoxidil were used as the positive control group.
The increase or decrease in DKK1 expression level in the obtained cell supernatant was confirmed through an Enzyme-Linked Immunosorbent Assay (ELISA) method, and the results are shown in FIG. 7.

[5] = test system: dermal papilla cells (HDPC); assay: Protection against DHT-induced death of dermal papilla cells (CCK-8); assay type: cell-based, human; conditions: 30 or 100 ppm for 1 day, then DHT, FIG. 9
Protocol: Specifically, HDPC were treated with Meloside A or L at concentrations of 30 or 100 ppm, respectively, for 1 day, and then cell death was induced with Dihydrotestosterone (DHT), For comparison, HDPC that were neither treated with Meloside A or L nor with DHT were used as the negative control group. HDPC treated with DHT but without Meloside A and L were used as the untreated group. HDPC treated with 100 μM Minoxidil or 5 mM NAC (N-acetyl cysteine) followed by DHT treatment were used as the positive control group.
CCK-8 (Cell Counting Kit-8, Dojindo, EU) reagent was added to the HDPC according to the manufacturer's protocol, and absorbance was measured at a wavelength of 450 nm using a microplate reader (BioTeK, USA) to confirm the cell viability of dermal papilla cells because of Meloside treatment, compared to the negative control group (treated with DMEM instead of Meloside A or L).

With `O=c1cc(-c2ccc(O)cc2)oc2cc(O)c([C@@H]3O[C@H](CO)[C@@H](O)[C@H](O)[C@H]3O[C@@H]3O[C@H](CO)[C@@H](O)[C@H](O)[C@H]3O)c(O)c12` [Meloside A, isovitexin 2″-O-glucoside] the “cell growth/proliferation (cytotoxicity) of HDPC vs negative control” value [1] was “comparable levels of cell growth/proliferation to the negative control group”, the “androgen receptor (AR) expression level, normalized to Actin” value [2] was “concentration-dependent; also recorded: superior effect in decreasing the expression level of androgen receptor (AR) compared to Meloside L” and the “DHT-induced translocation of androgen receptors (number of cells with translocated AR)” value [3] was “inhibited; also recorded: superior to that of Meloside L treatment”. The DKK1 expression level [4] was “concentration-dependent decrease in DKK1 expression” and the “cell protective effect against DHT (cell viability)” value [5] was “cell protective effect against DHT was confirmed”.
In the case of `O=c1cc(-c2ccc(O)c(O)c2)oc2cc(O)c([C@@H]3O[C@H](CO)[C@@H](O)[C@H](O)[C@H]3O[C@@H]3O[C@H](CO)[C@@H](O)[C@H](O)[C@H]3O)c(O)c12` [Meloside L, isoorientin 2″-O-glucoside], the “cell growth/proliferation (cytotoxicity) of HDPC vs negative control” value [1] is reported as “comparable levels of cell growth/proliferation to the negative control group”, the “androgen receptor (AR) expression level, normalized to Actin” value [2] is reported as “concentration-dependent” and the “DHT-induced translocation of androgen receptors (number of cells with translocated AR)” value [3] is reported as “inhibited”. The DKK1 expression level [4] was “no effect was observed” and the “cell protective effect against DHT (cell viability)” value [5] was “no cell protective effect against DHT was observed”.

From patent US20260232709A1, “COMPOSITION COMPRISING MELOSIDE FOR ALLEVIATING HAIR LOSS AND IMPROVING HAIR GROWTH” (MORECHEM CO., LTD., priority 2024, published 2026)
